Measured values as given in the supplement of paper PMC10307832.

Columns and labels:
Assay in all cases: relative viability (nuclei count vs DMSO), 5 days (fraction); higher = more cells survive
Masitinib + Alpelisib = compound: Cc1ccc(NC(=O)c2ccc(CN3CCN(C)CC3)cc2)cc1Nc1nc(-c2cccnc2)cs1 [Masitinib] + Cc1nc(NC(=O)N2CCC[C@H]2C(N)=O)sc1-c1ccnc(C(C)(C)C(F)(F)F)c1 [Alpelisib] (partner 2 µM)
In short: (§1)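 Nuclei were stained with Hoechst during a one-step fixation (final 0.05% Triton X-100, 1% formaldehyde, 1 ug/ml Hoechst) carried out 5 days after dosing, then counted on 4× images. The cells, lung cancer lines in 1536-well plates, had been dosed by pin tool the day after seeding with one drug alone or a fixed anchor-drug dose plus five library-drug doses (not always all listed) in √10 steps. Relative viability is the nuclei count in treated wells divided by that in vehicle wells, and each value is the median of duplicate plates.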

[1] = compound: CC1=CC(=CC=C1)NC2=NC(=CS2)C3=CC=NC=C3 + O=C(CCCCCCC(=O)Nc1ccccc1)NO [Vorinostat] (partner 1 µM)
In short: as §1

[2] = compound: CC1=CC(=CC=C1)NC2=NC(=CS2)C3=CC=NC=C3 + Nc1ncn([C@H]2C[C@H](O)[C@@H](CO)O2)c(=O)n1 [Decitabine] (partner 2 µM)
In short: as §1

Masitinib + Lapatinib = compound: Cc1ccc(NC(=O)c2ccc(CN3CCN(C)CC3)cc2)cc1Nc1nc(-c2cccnc2)cs1 [Masitinib] + CS(=O)(=O)CCNCc1ccc(-c2ccc3ncnc(Nc4ccc(OCc5cccc(F)c5)c(Cl)c4)c3c2)o1 [Lapatinib] (partner 2 µM)
In short: as §1

Cell Line	relative viability (Masitinib + Alpelisib; first compound 0.01 µM)	relative viability (Masitinib + Alpelisib; first compound 0.03162 µM)	relative viability (Masitinib + Alpelisib; first compound 0.1 µM)	relative viability (Masitinib + Alpelisib; first compound 0.3162 µM)	relative viability (Masitinib + Alpelisib; first compound 1 µM)	relative viability ([1]; first compound 0.08 µM)	relative viability ([1]; first compound 0.253 µM)	relative viability ([1]; first compound 0.8 µM)	relative viability ([1]; first compound 2.53 µM)	relative viability ([1]; first compound 8 µM)	relative viability ([2]; first compound 0.08 µM)	relative viability ([2]; first compound 0.253 µM)	relative viability ([2]; first compound 0.8 µM)	relative viability ([2]; first compound 2.53 µM)	relative viability ([2]; first compound 8 µM)	relative viability (Masitinib + Lapatinib; first compound 0.01 µM)	relative viability (Masitinib + Lapatinib; first compound 0.03162 µM)	relative viability (Masitinib + Lapatinib; first compound 0.1 µM)	relative viability (Masitinib + Lapatinib; first compound 0.3162 µM)	relative viability (Masitinib + Lapatinib; first compound 1 µM)
NCI-H1666	0.92	1.05	0.943	0.706	0.99	0.622	0.821	0.702	0.79	0.735	0.682	0.691	0.67	0.472	0.636	0.677	0.657	0.706	0.428	0.557
NCI-H1734	0.616	0.715	0.764	0.383	0.658	0.725	0.77	0.782	0.752	0.681	0.446	0.417	0.457	0.507	0.463	0.915	0.956	1.02	0.85	1
NCI-H1755	–	0.847	1.01	0.972	0.833	0.621	0.761	0.726	0.611	0.605	0.654	0.702	0.701	0.617	0.604	–	0.998	0.711	1.07	0.995
NCI-H1793	0.846	0.683	0.878	0.82	0.636	0.633	0.616	0.771	0.632	0.8	0.513	0.481	0.489	0.472	0.238	0.631	0.633	0.594	0.456	0.575
NCI-H1915	–	1.06	1.07	1.04	1.07	0.442	0.452	0.477	0.501	0.525	0.244	0.277	0.262	0.276	0.261	–	1.06	0.678	1.06	0.984
NCI-H1944	–	0.78	0.925	0.699	0.84	0.364	0.489	0.529	0.366	0.408	0.367	0.426	0.399	0.361	0.389	–	0.743	0.584	0.695	0.906
NCI-H1975	0.62	0.622	0.684	0.602	0.604	0.656	0.694	0.593	0.707	0.554	0.326	0.336	0.381	0.356	0.245	0.941	0.876	0.992	0.824	0.828
NCI-H1993	0.669	–	0.627	0.728	0.636	0.691	0.649	0.726	0.819	0.726	0.565	0.561	0.483	0.485	0.502	0.438	–	0.913	0.776	0.678
NCI-H2009	1.15	1.12	1.24	1.16	1.18	0.624	0.664	0.593	0.642	0.7	0.342	0.425	0.385	0.411	0.376	0.567	0.984	0.719	0.834	0.9
NCI-H2023	0.581	0.62	0.6	0.518	0.548	0.594	0.429	0.689	0.531	0.405	0.239	0.223	0.245	0.203	0.216	0.628	0.823	0.73	0.559	0.776
NCI-H2085	0.838	1	1.09	0.935	0.985	0.763	0.763	0.693	0.755	0.645	0.479	0.532	0.504	0.452	0.457	0.732	0.736	0.839	0.703	0.664
NCI-H2087	1.07	1.05	1.19	1.15	1.08	0.615	0.725	0.762	0.574	0.708	0.264	0.293	0.281	0.263	0.238	0.757	1.06	0.77	1.22	0.861
NCI-H2126	0.802	0.766	0.832	0.661	0.712	0.579	0.717	0.711	0.735	0.74	0.525	0.56	0.559	0.572	0.578	0.773	0.724	0.734	0.662	0.769
NCI-H2170	0.912	0.688	0.902	0.784	0.801	0.695	0.901	0.731	0.697	0.599	0.426	0.399	0.437	0.43	0.361	0.269	0.275	0.267	0.264	0.262
NCI-H2347	0.981	1.14	1.01	1.13	1.05	0.512	0.671	0.411	0.657	0.501	0.622	0.596	0.53	0.602	0.591	0.826	0.911	0.821	0.833	0.948
NCI-H2405	0.838	0.945	0.896	0.737	0.802	0.874	0.613	0.892	–	0.839	0.694	0.678	0.686	–	0.671	0.921	1.09	0.953	0.946	0.952
NCI-H3122	0.87	0.758	0.785	0.899	0.821	0.912	0.709	1.05	1.03	0.961	0.366	0.443	0.449	0.467	0.522	1.01	1.04	1.02	1.04	1
